Experimental data from ChEMBL document CHEMBL4433261, “Synthesis of peptidomimetics and chemo-biological tools for CD95/PLCγ1 interaction analysis” (Bioorg Med Chem Lett, 2019).
Calls of active or inactive are those of the source. The rule behind the calls is not given here.

Key:
[1] = target: T1, Tumor necrosis factor receptor superfamily member 6 (Homo sapiens) (UniProt P25445); assay: Inhibition of s-CD95L(unknown origin)-stimulated cell migration of human Th17 cells at 1 uM incubated for 24 hrs by Boyden chambers assay
T1 sequence (whole entry): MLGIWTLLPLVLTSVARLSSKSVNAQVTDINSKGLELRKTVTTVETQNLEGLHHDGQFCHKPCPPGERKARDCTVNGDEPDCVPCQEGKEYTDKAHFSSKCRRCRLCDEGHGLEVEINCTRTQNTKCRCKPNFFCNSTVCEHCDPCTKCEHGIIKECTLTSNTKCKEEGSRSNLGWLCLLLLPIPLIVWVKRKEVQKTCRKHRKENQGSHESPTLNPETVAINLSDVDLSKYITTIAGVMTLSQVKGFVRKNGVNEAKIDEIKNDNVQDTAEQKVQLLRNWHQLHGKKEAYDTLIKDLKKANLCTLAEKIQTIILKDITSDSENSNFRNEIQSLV

[2] = species on record: Homo sapiens; assay: Selectivity ratio of IC50 for human full length HA-tagged CD95/FADD (unknown origin) protein-protein interaction to IC50 for human full length HA-tagged CD95/human full length Myc-tagged PLCgamma1 protein-protein interaction
[3] = target: T1, Tumor necrosis factor receptor superfamily member 6 (Homo sapiens); assay: Inhibition of s-CD95L(unknown origin)-stimulated cell migration of human MDA-MB-231 cells at 1 uM incubated for 24 hrs by Boyden chambers assay; format: cell-based
[4] = target: T1, Tumor necrosis factor receptor superfamily member 6 (Homo sapiens); assay: Inhibition of s-CD95L(unknown origin)-stimulated cell migration of human MDA-MB-231 cells at 1 uM incubated for 24 hrs by Giemsa-staining based assay
[5] = Inhibition of human full length HA-tagged CD95/human full length Myc-tagged PLCgamma1 protein-protein interaction transfected in HEK293T cells incubated for 4 hrs by renilla luciferase based protein-fragment complementation assay; format: cell-based
[6] = Inhibition of human full length HA-tagged CD95/FADD (unknown origin) protein-protein interaction transfected in HEK293T cells incubated for 4 hrs by renilla luciferase based protein-fragment complementation assay; format: cell-based
[7] = Half life in human whole blood; format: ADME, tissue-based
[8] = target: T1, Tumor necrosis factor receptor superfamily member 6 (Homo sapiens); assay: Inhibition of s-CD95L(unknown origin)-stimulated cell migration of human MDA-MB-231 cells at 10 uM incubated for 24 hrs by Giemsa-staining based assay
[9] = target: T1, Tumor necrosis factor receptor superfamily member 6 (Homo sapiens); assay: Inhibition of s-CD95L(unknown origin)-stimulated cell migration of human MDA-MB-231 cells at 10 uM incubated for 24 hrs by Boyden chambers assay; format: cell-based
[10] = target: T1, Tumor necrosis factor receptor superfamily member 6 (Homo sapiens); assay: Inhibition of s-CD95L(unknown origin)-stimulated cell migration of human Th17 cells at 10 uM incubated for 24 hrs by Boyden chambers assay
[11] = target: T2, 1-phosphatidylinositol 4,5-bisphosphate phosphodiesterase gamma-1 (Homo sapiens) (UniProt P19174); assay: (§1) Binding affinity to human full length Myc-tagged PLCgamma1 transfected in HEK293T cells by pull down assay; format: cell-based
T2 sequence (whole entry): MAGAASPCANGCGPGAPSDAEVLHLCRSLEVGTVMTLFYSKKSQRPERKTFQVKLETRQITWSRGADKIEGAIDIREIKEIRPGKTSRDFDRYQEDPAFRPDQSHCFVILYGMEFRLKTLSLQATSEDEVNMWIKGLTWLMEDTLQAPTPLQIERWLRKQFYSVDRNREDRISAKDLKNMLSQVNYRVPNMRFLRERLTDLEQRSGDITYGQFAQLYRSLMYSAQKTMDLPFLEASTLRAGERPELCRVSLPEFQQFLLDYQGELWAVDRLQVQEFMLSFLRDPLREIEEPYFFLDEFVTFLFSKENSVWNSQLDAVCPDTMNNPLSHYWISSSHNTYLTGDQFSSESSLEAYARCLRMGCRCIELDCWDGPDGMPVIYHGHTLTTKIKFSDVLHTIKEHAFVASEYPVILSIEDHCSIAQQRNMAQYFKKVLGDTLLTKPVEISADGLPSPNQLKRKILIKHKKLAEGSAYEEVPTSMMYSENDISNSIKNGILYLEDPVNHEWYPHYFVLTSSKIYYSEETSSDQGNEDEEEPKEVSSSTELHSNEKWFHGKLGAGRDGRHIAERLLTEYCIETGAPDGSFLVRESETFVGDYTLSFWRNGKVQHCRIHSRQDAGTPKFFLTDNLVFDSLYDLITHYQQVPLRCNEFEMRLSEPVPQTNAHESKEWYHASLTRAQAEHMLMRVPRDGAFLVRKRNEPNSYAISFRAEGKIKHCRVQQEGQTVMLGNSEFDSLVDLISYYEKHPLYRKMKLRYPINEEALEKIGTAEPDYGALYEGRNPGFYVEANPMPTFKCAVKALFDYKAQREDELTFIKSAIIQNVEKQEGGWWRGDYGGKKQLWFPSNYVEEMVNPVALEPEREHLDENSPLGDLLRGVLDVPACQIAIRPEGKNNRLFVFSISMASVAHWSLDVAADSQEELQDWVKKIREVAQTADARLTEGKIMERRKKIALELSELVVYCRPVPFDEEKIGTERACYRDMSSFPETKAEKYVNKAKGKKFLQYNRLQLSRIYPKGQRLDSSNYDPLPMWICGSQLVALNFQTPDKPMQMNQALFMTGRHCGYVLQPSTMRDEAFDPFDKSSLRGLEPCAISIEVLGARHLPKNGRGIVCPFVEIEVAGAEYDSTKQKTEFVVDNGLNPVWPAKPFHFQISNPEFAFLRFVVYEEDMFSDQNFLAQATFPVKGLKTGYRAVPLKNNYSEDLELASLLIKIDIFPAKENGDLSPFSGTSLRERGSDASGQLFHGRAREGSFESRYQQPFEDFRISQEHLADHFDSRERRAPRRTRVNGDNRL

[12] = target: T3, 1-phosphatidylinositol 4,5-bisphosphate phosphodiesterase gamma-1 (Homo sapiens, UniProt P19174); assay: as §1; format: cell-based
T3 sequence (P19174 whole entry): T2 sequence (whole entry)

[13] = tested on: CCRF-CEM; assay: Cytotoxicity in human CEM cells assessed as reduction in cell viability incubated for 24 hrs by MTT assay; format: cell-based

Molecule | Ratio IC50 [2] | IC50 [5] [µM] | IC50 ([6]; read-out: IC50) [µM] | other results
H-TCRKHRK-OH | > 100 | 35 | – | inhibition [1]: Active; inhibition [3]: Active; inhibition [4]: Active; IC50 [6]: Not Active; half-life [7]: 3 to 3.4 h
N=C(N)NCCCCC(=O)N(CCNC(=O)[C@@H](N)CS)[C@@H](CCCCN)C(=O)NCCN(C(=O)CCc1c[nH]cn1)[C@@H](CCCNC(=N)N)C(=O)NCCNC(=O)CCCCCN | 1.1 | 400 | 448 | –
C[C@@H](O)[C@H](N)C(=O)NCCN(C(=O)CCS)[C@@H](CCCNC(=N)N)C(=O)NCCN(C(=O)CCCCCN)[C@@H](Cc1c[nH]cn1)C(=O)NCCN(C(=O)CCCCNC(=N)N)[C@@H](CCCCN)C(N)=O | > 100 | 77 | – | inhibition [8]: Active; IC50 [6]: Not Active; inhibition [9]: Active; inhibition [10]: Active; half-life [7]: 11 to 11.1 h
N=C(N)NCCCCC(=O)N(CCNC(=O)[C@H](Cc1c[nH]cn1)N(CCNC(=O)[C@H](CCCNC(=N)N)N(CCN)C(=O)CCCC[C@@H]1SC[C@@H]2NC(=O)N[C@@H]21)C(=O)CCCCCN)[C@@H](CCCCN)C(N)=O | – | – | – | Activity [11]: Active
C[C@@H](O)CC(=O)N(CCN)[C@@H](CS)C(=O)NCCN(C(=O)CCCCNC(=N)N)[C@@H](CCCCN)C(=O)NCCN(C(=O)CCc1c[nH]cn1)[C@@H](CCCNC(=N)N)C(=O)NCCNC(=O)CCCCCN | 1.4 | 229 | 319 | –
C[C@@H](O)CC(=O)N[C@@H](CS)C(=O)NCCN(C(=O)CCCCNC(=N)N)[C@@H](CCCCN)C(=O)NCCN(C(=O)CCc1c[nH]cn1)[C@@H](CCCNC(=N)N)C(=O)NCCNC(=O)CCCCCN | 2 | 308 | 629 | –
C[C@@H](O)[C@H](NC(=O)CCCC[C@@H]1SC[C@@H]2NC(=O)N[C@@H]21)C(=O)NCCN(C(=O)CCS)[C@@H](CCCNC(=N)N)C(=O)NCCN(C(=O)CCCCCN)[C@@H](Cc1c[nH]cn1)C(=O)NCCN(C(=O)CCCCNC(=N)N)[C@@H](CCCCN)C(N)=O | – | – | – | EC50 [12]: 25 to 50 µM
N=C(N)NCCCCC(=O)N(CCNC(=O)[C@H](Cc1c[nH]cn1)N(CCNC(=O)[C@H](CCCNC(=N)N)N(CCN)C(=O)CCS)C(=O)CCCCCN)[C@@H](CCCCN)C(N)=O | 50 | 75 | 3800 | inhibition [8]: Active; inhibition [9]: Active; inhibition [10]: Active
CCCCCCCCCCCCCCCCCC(=O)N(CCN)[C@@H](CCCNC(=N)N)C(=O)NCCN(C(=O)CCCCCN)[C@@H](Cc1c[nH]cn1)C(=O)NCCN(C(=O)CCCCNC(=N)N)[C@@H](CCCCN)C(N)=O.O=C(O)C(F)(F)F.O=C(O)C(F)(F)F.O=C(O)C(F)(F)F.O=C(O)C(F)(F)F.O=C(O)C(F)(F)F | 1.1 | 35 | 39 | Activity [13]: Toxic
